Measured values taken from patent US20150183827A1, “CELL PENETRATING PEPTIDES & METHODS OF IDENTIFYING CELL PENETRATING PEPTIDES” (Hoffmann-La Roche Inc., priority 2012, published 2015).
* marks the point of attachment. FITC = O=C1OC2(c3ccc(O)cc3Oc3cc(O)ccc32)c2ccc(NC(=S)*)cc21; Ahx = NCCCCCC(=O)O

Test system: H460 cells
Assay: cell penetration of FITC-tagged peptides in H460 cells (confocal fluorescence imaging)
Assay type: cell-based
Settings: 3 μm, 2 hours, FIGS. 3A-3B
Method: The peptides of Examples 1-19 were tested for cell penetration in H460 and HeLa cell lines as follows.
The H460 cell line and HeLa (ATCC) were maintained in growth media then passaged every 2-3 days. Growth media for H460 was RPMI 1640, 10% fetal calf serum, sodium pyruvate, antibiotics and glutamine (GIBCO). Growth media for HeLa cells was DMEM supplemented with 10% heat-inactivated fetal calf serum, antibiotics and glutamine (GIBCO).
Cells were plated onto Whatman glass-bottom 96-well plates or Perkin Elmer glass-bottom 96-well plates and cultured overnight. Peptide stocks were prepared in DMSO and were diluted in cell growth media for cellular uptake studies. After 2 and 24 h of peptide incubation at various concentrations, media was removed followed by three washes of acidic saline. Formaldehyde fixation, with or without Hoechst 33342 dye solution (to stain nuclei), was followed by PBS washes. Plates were imaged on the Operetta High Content Imaging system in confocal fluorescence mode using the 40×water immersion high NA objective.

**Q.** For “FITC-6Ahx-KVFSPKKKMEFFLLF-NH2 ({FITC-Ahx}-KVFSPKKKMEFFLLF-NH2; SMILES CSCC[C@H](NC(=O)[C@H](CCCCN)NC(=O)[C@H](CCCCN)NC(=O)[C@H](CCCCN)NC(=O)[C@@H]1CCCN1C(=O)[C@H](CO)NC(=O)[C@H](Cc1ccccc1)NC(=O)[C@@H](NC(=O)[C@H](CCCCN)NC(=O)CCCCCNC(=S)Nc1ccc2c(c1)C(=O)OC21c2ccc(O)cc2Oc2cc(O)ccc21)C(C)C)C(=O)N[C@@H](CCC(=O)O)C(=O)N[C@@H](Cc1ccccc1)C(=O)N[C@@H](Cc1ccccc1)C(=O)N[C@@H](CC(C)C)C(=O)N[C@@H](CC(C)C)C(=O)N[C@@H](Cc1ccccc1)C(N)=O) [Example 12]”, which “cell penetration as determined by the fluorescence” value (“cell penetration as determined” below) is on record?
**A.** The value was “low but still cell penetrating”.

**Q.** For “FITC-6Ahx-LLPQWPRIRHIKLLR-NH2 ({FITC-Ahx}-LLPQWPRIRHIKLLR-NH2; SMILES CC[C@H](C)[C@H](NC(=O)[C@H](Cc1c[nH]cn1)NC(=O)[C@H](CCCNC(=N)N)NC(=O)[C@@H](NC(=O)[C@H](CCCNC(=N)N)NC(=O)[C@@H]1CCCN1C(=O)[C@H](Cc1c[nH]c2ccccc12)NC(=O)[C@H](CCC(N)=O)NC(=O)[C@@H]1CCCN1C(=O)[C@H](CC(C)C)NC(=O)[C@H](CC(C)C)NC(=O)CCCCCNC(=S)Nc1ccc2c(c1)C(=O)OC21c2ccc(O)cc2Oc2cc(O)ccc21)[C@@H](C)CC)C(=O)N[C@@H](CCCCN)C(=O)N[C@@H](CC(C)C)C(=O)N[C@@H](CC(C)C)C(=O)N[C@@H](CCCNC(=N)N)C(N)=O) [Example 19]”, which “cell penetration as determined” value is on record?
**A.** The value was “low but still cell penetrating”.

**Q.** “FITC-6Ahx-MRMIRFRKKIPYLRY-NH2 ({FITC-Ahx}-MRMIRFRKKIPYLRY-NH2; SMILES CC[C@H](C)[C@H](NC(=O)[C@H](CCSC)NC(=O)[C@H](CCCNC(=N)N)NC(=O)[C@H](CCSC)NC(=O)CCCCCNC(=S)Nc1ccc2c(c1)C(=O)OC21c2ccc(O)cc2Oc2cc(O)ccc21)C(=O)N[C@@H](CCCNC(=N)N)C(=O)N[C@@H](Cc1ccccc1)C(=O)N[C@@H](CCCNC(=N)N)C(=O)N[C@@H](CCCCN)C(=O)N[C@@H](CCCCN)C(=O)N[C@H](C(=O)N1CCC[C@H]1C(=O)N[C@@H](Cc1ccc(O)cc1)C(=O)N[C@@H](CC(C)C)C(=O)N[C@@H](CCCNC(=N)N)C(=O)N[C@@H](Cc1ccc(O)cc1)C(N)=O)[C@@H](C)CC) [Example 14]” was tested. Which “cell penetration as determined” value did it give?
**A.** Its value is “low but still cell penetrating”.

**Q.** Which “cell penetration as determined” value does the source give for “FITC-6Ahx-VKIWFQNRRVRWRKR-NH2 ({FITC-Ahx}-VKIWFQNRRVRWRKR-NH2; SMILES CC[C@H](C)[C@H](NC(=O)[C@H](CCCCN)NC(=O)[C@@H](NC(=O)CCCCCNC(=S)Nc1ccc2c(c1)C(=O)OC21c2ccc(O)cc2Oc2cc(O)ccc21)C(C)C)C(=O)N[C@@H](Cc1c[nH]c2ccccc12)C(=O)N[C@@H](Cc1ccccc1)C(=O)N[C@@H](CCC(N)=O)C(=O)N[C@@H](CC(N)=O)C(=O)N[C@@H](CCCNC(=N)N)C(=O)N[C@@H](CCCNC(=N)N)C(=O)N[C@H](C(=O)N[C@@H](CCCNC(=N)N)C(=O)N[C@@H](Cc1c[nH]c2ccccc12)C(=O)N[C@@H](CCCNC(=N)N)C(=O)N[C@@H](CCCCN)C(=O)N[C@@H](CCCNC(=N)N)C(N)=O)C(C)C) [Example 13]” here?
**A.** Its value is “medium”.
